Source: PubChem BioAssay AID743330 (NMMLSC, 2014)

Legend:
Experiment in all cases: GTPase panel EC50 shift with labeled GTP level, profiling panel, mechanism study, biochemical, four GTPases, bead flow cytometry (AID 743330)
Details in all cases: bead-based flow cytometry, fluorescent GTP binding to GTPases
[1] = target: Cdc42 mutant
[2] = target: Cdc42
[3] = target: Rab7
[4] = target: Ras

EC50 ([1]; EC50 at 25 nM fluorescent GTP)	EC50 ([1]; EC50 at 100 nM fluorescent GTP)	EC50 ([2]; EC50 at 25 nM fluorescent GTP)	EC50 ([2]; EC50 at 100 nM fluorescent GTP)	EC50 ([3]; EC50 at 25 nM fluorescent GTP)	EC50 ([3]; EC50 at 100 nM fluorescent GTP)	EC50 ([4]; EC50 at 25 nM fluorescent GTP)	EC50 ([4]; EC50 at 100 nM fluorescent GTP)	SMILES
120 nM	977 nM	248 nM	1040 nM	55 nM	479 nM	66 nM	444 nM	CC1(C)Cc2c(sc(NC(=S)NC(=O)c3ccc(F)cc3)c2C(=O)O)CO1
12 nM	27 nM		20 nM	8 nM	29 nM	6 nM	23 nM	CCC1(C)Cc2c(sc(NC(=S)NC(=O)c3ccccc3)c2C(=O)O)CO1 (stereo not given)
